US12383535B2, “Hydrogen peroxide-responsive KEAP1-NRF2 ppi inhibitor prodrug, and preparation method therefor” (CHINA PHARMACEUTICAL UNIVERSITY, priority 2019, dated 2025)

What was measured:
Stability in plasma = type: in vitro ADME
Description: (2) Stability in plasma. Samples (20 μM) of the prodrug pro2 were co-incubated in triplicate with mouse plasma at 37° C. at different time periods. Methanol was added to precipitate the proteins, and the samples were vortexed and then centrifuged at 12,000 rpm for 5 min. The supernatants were analyzed by HPLC and the peak areas were recorded.

[1] = test system: IL-1β and IL-6 protein in RAW264.7 cells; test: Western blot of IL-1β and IL-6 protein levels; type: cell-based, mouse; conditions: same concentration
Description: Anti-Nrf2 (ab62352) and anti-IL-1β (ab45692) antibodies were purchased from Abcam Technology (England). Anti-HO-1 (SC-136960) and anti-NQO1 (SC-271116) antibodies were purchased from Santa Cruz Biotechnology (California, USA). Anti-β-Actin (60008-1-Ig) and anti-GCLM (14241-1-AP) antibodies were purchased from Proteintech Group (USA). Cell sampling and western blot were performed as previously reported (M.-C. Lu, J.-A. Ji, Y.-L. Jiang, Z.-Y. Chen, Z.-W. Yuan, Q.-D. You, Z.-Y. Jiang, An inhibitor of the Keap1-Nrf2 protein-protein interaction protects NCM460 colonic cells and alleviates experimental colitis, Sci. Rep., 6 (2016) 26585).

[2] = test system: IL-1β and IL-6 mRNA in RAW264.7 cells; test: Real-time quantitative PCR of IL-1β and IL-6; type: cell-based, mouse; conditions: 20 ng/mL LPS 8 h
[3] = Parallel artificial membrane permeability assay (PAMPA); type: in vitro ADME
Description: Potential solubility data were obtained with a pSOL model 3 instrument (pION INC, Cambridge, Massachusetts, USA). Cell membrane permeability was determined on a PAMPA Explorer instrument (pION).
Subsequently, the permeability of cell membranes was measured by standard parallel artificial membrane permeability assay (PAMPA).

[4] = pKa and log D by Avdeef-Bucher potentiometric titration; type: physicochemical
Description: Through Avdeef-Bucher potentiometric titration, pKa and partition coefficients (log D, pH 7.4) were determined on a Gemini Profiler instrument (pION) according to the method of Avdeef and Tsinman. pH measurements were used to determine the intrinsic solubility.

[5] = Stability in liver microsomes (human); type: in vitro ADME
Description: (§1) (3) Stability in microsomes. Isolated liver microsomes (from CD-1 male rats and human males) were used to evaluate the stability of the compound in microsomes in vitro. Ketanserin was used as a reference compound. A liver microsome solution (20 mg/mL) was added to a microcentrifuge tube containing PBS at 37° C. and the mixture was shaken for 10 min prior to assay. Then a DMSO solution (0.5 mM) containing the test compound was added. At 0 min, pre-cooled acetonitrile was added followed by an NADPH stock solution (6 mM). The plates were pre-incubated at 37° C. for 5 min. The timer started upon the addition of the NADPH stock solution (6 mM) to the plates. At 5 min, 15 min, 30 min and 45 min, pre-cooled acetonitrile was added to the wells of the respective plates to stop the reactions. After the reaction was quenched, the plates were shaken on a shaker for 10 min and then centrifuged at 5000 rpm for 15 min. The supernatant from each well was transferred to a 96-well sample plate containing ultrapure water for LC-MS/MS analysis.

[6] = Drug release rate by HPLC (H2O2 activation of prodrug); type: physicochemical
Description: The target compound was dissolved in DMSO to give a 10 mM stock solution, which was then stored at −20° C. The final concentration was brought to 50 μM by adding the target compound (10 mM) to phosphate buffered saline (PBS) (10 mM, pH 7.4), and H2O2 was added. The solution was well vortexed, and then incubated at 37° C. Samples were taken at appropriate time intervals and analyzed by HPLC directly after injection, and the peak areas were recorded to calculate the percentage of the compound. The procedure was repeated three times. The following Agilent 1260 HPLC and DAD detectors were used: Agilent C18 column (4.6×150 mm, 3.5 μm); mobile phase: 70% methanol; flow rate: 0.5 mL/min. A standard curve of the compound was plotted against concentration.
After treatment with 10 mM H2O2, the prodrug pro2 was activated with prolonged incubation time and the active parent compound 2 was completely released within 3 h (HPLC-determined conversion >98%, (B) of FIG. 1 and (C) of FIG. 1).

[7] = Stability in liver microsomes (rat); type: in vitro ADME
Description: as §1

[8] = pH stability in PBS buffers; type: physicochemical; conditions: PBS solutions, pH 4-10
Description: (1) pH stability. PBS buffers with different pH values (pH 4-10) were prepared from a 0.1 M HCl solution and a 0.1 M NaOH solution. The prodrug pro2 (20 μM) was incubated in triplicate together with the PBS buffers of different pH at 37° C. After 24 h of incubation, the solutions were filtered and injected for direct sample analysis by HPLC, and the peak areas were recorded to calculate the percentage of compound.

[9] = test system: Nrf2-ARE-driven gene transcription in RAW264.7 cells; test: Real-time quantitative PCR of Nrf2, HO-1, NQO1 and GCLM; type: cell-based, mouse; conditions: 20 ng/mL LPS 8 h, compound 500 nM
Description: The procedures were performed according to the real-time quantitative RT-PCR experimental procedures reported previously (Z. Jiang, M. Lu, Q. D. You, Discovery and Development of Kelch-like ECH-Associated Protein 1: Nuclear Factor Erythroid 2-Related Factor 2 (KEAP1:NRF2) Protein-Protein Interaction Inhibitors: Achievements, Challenges and Future Directions, J. Med. Chem., 59 (2016) 10837-10858). The primers used for qRT-PCR were as follows: Nrf2 (forward primer: AACCACCCTGAAAGCACGC, reverse primer: […]); HO-1 (forward primer: […], reverse primer: […]); NQO-1 (forward primer: CGCAGACCTT-GTGATATTCCAG, reverse primer: […]); GCLM (forward primer: […], reverse primer: […]).
To determine the effect of pro2 on Nrf2-ARE-driven gene transcription, mRNA levels of Nrf2 and three downstream genes, HO-1, NQO1 and GCLM, were examined ((A) of FIG. 4 to (D) of FIG. 4). […] The protein levels of the above genes were determined by western blot.

RAW264.7 cells = test: Antioxidant capacity assays (SOD, GSH-Px, GSH/GSSG, MPO); type: cell-based, mouse
From the text: Subsequently, to investigate the effect of pro2 on antioxidant capacity in inflammatory conditions, the activities of superoxide dismutase (SOD) and glutathione peroxidase (GPx) were examined. […] In addition, the GSH/GSSG ratio and myeloperoxidase (MPO) activity were also examined, which are two important markers indicating oxidative stress.

stability in rat plasma (Stability in plasma): very stable
Pe at pH 7.4 [3]: 6.35 10^−6 cm/s
Papp ([3]; pH 7.4, read-out: Pe at pH 7.4): 6.35 ×10⁻⁶ cm/s
pKa [4]: 4.53
LogD at pH 7.4 ([4]; pH 7.4): 2.34
stability in co-incubation with human liver microsomes [5]: very stable
time to complete release of the active parent compound 2 ([6]; 10 mM H2O2): ≤ 3 h
HPLC-determined conversion ([6]; 10 mM H2O2, within 3 h): > 98%
release of the active parent compound 2 ([6]; H2O2 0.8 mM, 24 h incubation, HPLC): no less than 50%
stability in co-incubation with rat liver microsomes [7]: very stable
hydrolytic stability in PBS [8]: hydrolytically stable
SMILES: COc1ccc(S(=O)(=O)Nc2ccc(N(CC(=O)N3CCSC3=O)S(=O)(=O)c3ccc(OC)cc3)c3ccccc23)cc1 [pro2]
LPS-induced IL-1β and IL-6 protein expression [1]: almost completely inhibited
mRNA transcription of IL-1β and IL-6 [2]: significantly inhibit the induction by pro-inflammatory genes
transcription of Nrf2, HO-1, NQO1 and GCLM (mRNA) [9]: greatly enhanced the transcription
SOD and GSH-Px activity (RAW264.7 cells; LPS 20 ng/mL): restored the SOD and GSH-Px activity significantly
GSH/GSSG ratio and MPO activity (RAW264.7 cells; LPS exposure): return markers to near normal
